The target in assay [1] is T1, KDM2B (FBXL10) (Homo sapiens, UniProt Q8NHM5).
T1 sequence (Q8NHM5 1-650): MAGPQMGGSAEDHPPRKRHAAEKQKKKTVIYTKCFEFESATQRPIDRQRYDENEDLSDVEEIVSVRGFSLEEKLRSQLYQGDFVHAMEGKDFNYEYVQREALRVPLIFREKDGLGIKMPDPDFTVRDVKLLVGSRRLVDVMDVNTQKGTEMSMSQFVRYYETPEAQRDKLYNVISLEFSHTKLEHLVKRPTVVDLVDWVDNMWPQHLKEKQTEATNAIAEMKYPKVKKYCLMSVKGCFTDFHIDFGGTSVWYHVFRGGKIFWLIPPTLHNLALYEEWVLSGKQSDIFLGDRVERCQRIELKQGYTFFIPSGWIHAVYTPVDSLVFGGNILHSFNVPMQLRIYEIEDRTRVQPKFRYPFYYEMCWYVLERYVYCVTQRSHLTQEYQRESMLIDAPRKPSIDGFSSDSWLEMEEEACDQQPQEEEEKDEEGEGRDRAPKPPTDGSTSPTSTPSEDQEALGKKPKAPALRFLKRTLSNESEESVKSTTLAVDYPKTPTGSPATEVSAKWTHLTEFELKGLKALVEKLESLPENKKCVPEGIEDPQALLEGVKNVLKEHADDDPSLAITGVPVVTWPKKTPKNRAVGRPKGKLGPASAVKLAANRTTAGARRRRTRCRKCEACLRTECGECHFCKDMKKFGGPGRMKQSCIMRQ
Nature of the assay: Histone lysine demethylase AlphaLISA assay, KDM2B. The class given is biochemical. As to conditions: read-out: KDM2B HDME Inhibition IC50. In short, it runs like this: (§1)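 Steps: enzyme equilibrated 10 min in buffer; compounds in 3% DMSO solution added, 10 min; substrate mix added (peptide, 25 μM L-Asc, 10 μM α-KG), room temperature; acceptor beads, then streptavidin donor beads, dark incubations; plate read.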
(In general: Bead proximity is the source of the signal in Alpha formats.)

Assay [2] addresses KDM6A (UTX) (Homo sapiens, UniProt O15550). Nature of the assay: Histone lysine demethylase AlphaLISA assay, KDM6A. The assay is classed as biochemical. Conditions: read-out: KDM6A HDME Inhibition IC50. In a few lines: as §1
Assay [3] deals with T2, KDM6B (JMJD3) (Homo sapiens, UniProt O15054).
T2 construct: 1043-end; purchased BPS; host or cells: Bac (baculovirus system)
The assay can be described thus: Histone lysine demethylase AlphaLISA assay, KDM6B. The class given is biochemical. As to conditions: read-out: KDM6B HDME Inhibition IC50. How it is done: Assays are performed analogously to the protocol described by PerkinElmer (Roy et al. PerkinElmer Technical Note: AlphaLISA #12, April 2011)
Enzymes are dissolved in enzyme buffer and incubated for 10 min before being added to 3% DMSO solutions of compounds in enzyme buffer. Incubated for another 10 minutes, before substrate solution is added and the reaction mixture is incubated at room temperature. 10 μL acceptor beads, suspended in Epigenetic Buffer (Perkin Elmer AL008) from stock, are added and the suspension is incubated in the dark at room temperature, before a suspension of streptavidin donor beads (Perkin Elmer 6760002) in Epigenetic Buffer is added. After incubation at room temperature in the dark the plates are read. […]
BK27M3: Biotin-ATKAAR(Kme3)SAPATGGVKKPHRY-NH2? (Caslo, Denmark) […]
Substrate Solution: Substrate, 25 μM L-Asc, and 10 μM α-KG in Buffer A.

Assay [4] addresses T3, KDM5B (Homo sapiens, UniProt Q9UGL1).
T3 construct: (a.a. 1-752); host or cells: U2OS
T3 sequence (Q9UGL1 1-752): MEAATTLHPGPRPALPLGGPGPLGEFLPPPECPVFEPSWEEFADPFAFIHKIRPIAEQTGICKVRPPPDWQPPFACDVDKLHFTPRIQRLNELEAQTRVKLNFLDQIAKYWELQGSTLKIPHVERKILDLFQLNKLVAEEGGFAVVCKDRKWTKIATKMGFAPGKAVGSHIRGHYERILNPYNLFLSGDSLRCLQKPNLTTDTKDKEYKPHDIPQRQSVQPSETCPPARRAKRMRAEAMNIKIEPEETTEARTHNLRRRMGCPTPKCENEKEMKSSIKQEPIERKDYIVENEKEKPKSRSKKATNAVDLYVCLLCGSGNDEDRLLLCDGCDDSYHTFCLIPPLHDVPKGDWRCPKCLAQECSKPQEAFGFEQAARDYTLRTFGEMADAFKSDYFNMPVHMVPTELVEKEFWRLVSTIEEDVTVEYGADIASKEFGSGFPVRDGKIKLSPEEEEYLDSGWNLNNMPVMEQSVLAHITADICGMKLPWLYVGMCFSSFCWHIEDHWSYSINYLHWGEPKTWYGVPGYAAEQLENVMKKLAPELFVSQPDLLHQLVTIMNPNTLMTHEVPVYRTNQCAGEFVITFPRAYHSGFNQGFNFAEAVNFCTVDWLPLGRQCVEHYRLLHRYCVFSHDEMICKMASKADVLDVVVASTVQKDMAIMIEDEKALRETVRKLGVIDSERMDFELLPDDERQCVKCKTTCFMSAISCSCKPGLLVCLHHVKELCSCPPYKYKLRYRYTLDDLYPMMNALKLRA
Nature of the assay: Histone lysine demethylase immunofluorescence assay, U2OS cells transfected with KDM5B. The class given is cell-based. As to conditions: U2OS cells transfected with pCMVHA KDM5B; mark detected H3K4me2; 20 hours. How it is done:
U2OS cells were seeded 24 hours before transfection. Transfection was performed with Fugene HD transfection reagent as recommended by the manufacturer. 6 hours after transfection, the cells were harvested and seeded into multi well plates into media containing compound. The media used was DMEM containing 10% FBS and pen/strep. 20 hours after incubation of cells with compounds, the cells were washed in PBS, harvested by fixation with formaldehyde 4% aqueous solution, and washed in PBS. Subsequently, the cells were permeabilized in PBS with 0.2% Triton X-100 for. Blocking was performed in PBS with 0.2% Triton X-100 and 5% FBS. The cells were incubated with primary antibodies in blocking solution over night at 4° C. The primary antibodies used in the assays were HA.11 (Covance, MMS-101P) and the antibody detecting the mark specified in the table below. After incubation with primary antibodies, the cells were washed with PBS, incubated with secondary antibodies (Alexa fluor 594 goat anti rabbit IgG, Invitrogen, A11012; Alexa flour 488 donkey anti mouse IgG, Invitrogen, A21202) and Hoechst, (Sigma, 33342) in blocking solution, and washed again with PBS. Finally, PBS was added and high throughput imaging and analysis were performed by an IN Cell Analyzer 1000 (GE Healthcare). The robot software analyzed individual cells and divided these into HA+ (transfected cells) and HA− (non-transfected cells). The IC50 values were based on an average measure of the staining of the mark specified in the table below in the transfected cells.

The values that follow come from patent publication US9650339B2, “Inhibitors of histone demethylases” (Gilead Sciences, Inc., priority 2013, dated 2017).

Each structure is given as a SMILES string.

KDM6A (UTX), sequence (O15550 919-1401): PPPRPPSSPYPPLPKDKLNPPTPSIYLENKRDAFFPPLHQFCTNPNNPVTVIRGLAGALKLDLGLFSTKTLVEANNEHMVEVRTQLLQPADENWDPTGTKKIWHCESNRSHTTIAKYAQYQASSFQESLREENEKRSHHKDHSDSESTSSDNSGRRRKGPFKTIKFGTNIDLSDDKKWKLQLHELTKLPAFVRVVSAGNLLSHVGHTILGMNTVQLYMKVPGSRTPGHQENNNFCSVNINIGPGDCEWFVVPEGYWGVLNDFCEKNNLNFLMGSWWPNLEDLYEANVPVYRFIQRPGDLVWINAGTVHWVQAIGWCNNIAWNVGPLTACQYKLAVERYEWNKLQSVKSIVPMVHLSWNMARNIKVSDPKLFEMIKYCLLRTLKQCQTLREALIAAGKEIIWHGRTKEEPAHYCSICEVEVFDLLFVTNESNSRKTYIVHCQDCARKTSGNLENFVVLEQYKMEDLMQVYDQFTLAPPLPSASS
T2 sequence (O15054 1043-1682 isoform O15054-1 limits assumed): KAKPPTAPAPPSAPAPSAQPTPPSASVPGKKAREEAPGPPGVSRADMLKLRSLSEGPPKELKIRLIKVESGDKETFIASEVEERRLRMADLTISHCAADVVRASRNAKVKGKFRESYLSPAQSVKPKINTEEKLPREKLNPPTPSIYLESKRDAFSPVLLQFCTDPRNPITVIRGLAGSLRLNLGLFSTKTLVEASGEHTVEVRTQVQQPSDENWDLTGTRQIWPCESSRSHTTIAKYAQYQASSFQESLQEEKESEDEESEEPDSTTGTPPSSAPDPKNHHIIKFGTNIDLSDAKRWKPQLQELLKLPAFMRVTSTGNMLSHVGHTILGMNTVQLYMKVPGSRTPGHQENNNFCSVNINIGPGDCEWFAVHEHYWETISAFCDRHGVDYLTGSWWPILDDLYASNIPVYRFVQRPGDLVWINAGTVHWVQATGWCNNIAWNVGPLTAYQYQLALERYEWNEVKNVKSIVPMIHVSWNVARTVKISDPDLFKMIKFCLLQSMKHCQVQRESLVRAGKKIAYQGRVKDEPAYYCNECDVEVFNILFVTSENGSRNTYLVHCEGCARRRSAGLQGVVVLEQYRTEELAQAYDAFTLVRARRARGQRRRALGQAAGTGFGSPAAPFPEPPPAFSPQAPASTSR

The IC50 is the concentration at which inhibition is half-maximal. With `CCN(CCN(C)C)C(=O)CNCc1cc(C=O)ccn1` [Compound 101], the IC50 is over 2.5 µM in assay [1], over 2.5 µM in assay [2], over 2.5 µM in assay [3] and under 0.25 µM in assay [4].
Consider `CN(C)CCCCCNCc1cc(/C=N/C2CC2)ccn1` [Compound 47, N-{[2-({[5-(dimethylamino)-pentyl]amino}-methyl)pyridin-4-yl]methylidene}-cyclopropanamine], for which the IC50 is over 2.5 µM in assay [1], over 2.5 µM in assay [2], over 2.5 µM in assay [3] and under 0.25 µM in assay [4].
Regarding `CON=Cc1ccnc(CNCCCN(C)C)c1` [Compound 64, [3-(dimethylamino)-propyl]({4-[(methoxyimino)-methyl]pyridin-2-yl}methyl)amine], the IC50 in assay [1], in assay [2], in assay [3] and in assay [4] was over 2.5 µM each time.
For `CN(C)CCCCNCc1cc(CNC2CC2)ccn1` [Compound 10, N-{[2-({[4-(dimethylamino)butyl]-amino}methyl)pyridin-4-yl]methyl}-cyclopropanamine], the IC50 in assay [1], in assay [2], in assay [3] and in assay [4] was over 2.5 µM in each case.
On to `CN(C)CC1CCC(CNCc2cc(C=O)ccn2)CC1` (stereo not shown) [Compound 97, 2-{[({4-[(dimethylamino)-methyl]cyclohexyl}-methyl)amino]-methyl}pyridine-4-carbaldehyde], for which the concentration for half-maximal inhibition (IC50) is over 2.5 µM in assay [1], over 2.5 µM in assay [2], over 2.5 µM in assay [3] and under 0.25 µM in assay [4].
Regarding `CCCNCc1cc(CNC2CC2)ccn1` [Compound 12, N-({2-[(propylamino)methyl]-pyridin-4-yl}methyl)-cyclopropanamine], the IC50 in assay [1], in assay [2], in assay [3] and in assay [4] was over 2.5 µM in each case.
With `O=C(CNCc1cc(/C=N/C2CC2)ccn1)N1CCC[C@@H]1CN1CCCC1` [Compound 49, 2-[({4-[N-cyclopropyl-carboximidoyl]pyridin-2-yl}methyl)amino]-1-[(2R)-2-(pyrrolidin-1-ylmethyl)pyrrolidin-1-yl]ethan-1-one], the concentration for half-maximal inhibition (IC50) in assay [1] was over 2.5 µM; in assay [2], over 2.5 µM; in assay [3], over 2.5 µM; in assay [4], under 0.25 µM.
As to `CN1CCC(CNCc2cc(C=O)ccn2)CC1` [Compound 100, 2-({[(1-methyl-piperidin-4-yl)methyl]amino}-methyl)pyridine-4-carbaldehyde], the IC50 was over 2.5 µM in assay [1], over 2.5 µM in assay [2], over 2.5 µM in assay [3] and under 0.25 µM in assay [4].
Consider `CC1CC1/N=C/c1ccnc(CNCC(=O)N(C)C)c1` (stereo not shown) [Compound 35, N,N-dimethyl-2-[({4-[N-(2-methylcyclopropyl)-carboximidoyl]pyridin-2-yl}methyl)amino]-acetamide], for which the half-inhibitory concentration (IC50) is 0.25 to 2.5 µM in assay [1], over 2.5 µM in assay [2], over 2.5 µM in assay [3] and 0.25 to 2.5 µM in assay [4].
In the case of `C(=N/C1CC1)/c1ccnc(CNCCCN2CCCC2)c1` [Compound 42, N-{[2-({[3-(pyrrolidin-1-yl)propyl]amino}-methyl)pyridin-4-yl]methylidene}-cyclopropanamine], the IC50 in assay [1] was over 2.5 µM; in assay [2], over 2.5 µM; in assay [3] it was over 2.5 µM; in assay [4], under 0.25 µM.
Regarding `O=Cc1ccnc(CNCC(=O)N2CCC[C@@H]2CN2CCCC2)c1` [Compound 102, 2-[({2-oxo-2-[(2R)-2-(pyrrolidin-1-ylmethyl)pyrrolidin-1-yl]ethyl}amino)-methyl]pyridine-4-carbaldehyde], the IC50 in assay [1] is over 2.5 µM; in assay [2], over 2.5 µM; in assay [3], over 2.5 µM; in assay [4], 0.25 to 2.5 µM.
For the molecule `CN(C)CCNCc1ccnc(CNCC(=O)N(C)C)c1` [Compound 15, 2-({[4-({[2-(dimethylamino)ethyl]-amino}methyl)pyridin-2-yl]methyl}amino)-N,N-dimethylacetamide], the IC50 was over 2.5 µM in assay [1], over 2.5 µM in assay [2], over 2.5 µM in assay [3] and 0.25 to 2.5 µM in assay [4].
For `CN(C)CCCNCc1cc(/C=N/CCN(C)C)ccn1` [Compound 38, ({4-[{[2-(dimethylamino)ethyl]-imino}methyl]pyridin-2-yl}methyl)[3-(dimethylamino)-propyl]amine], the IC50 was over 2.5 µM in assay [1], over 2.5 µM in assay [2], over 2.5 µM in assay [3] and under 0.25 µM in assay [4].
As to `O=C(CNCc1cc(/C=N/C2CC2)ccn1)NC1CCN(Cc2ccccc2)C1` (stereo not shown) [Compound 53, N-(1-benzylpyrrolidin-3-yl)-2-[({4-[N-cyclopropyl-carboximidoyl]pyridin-2-yl}methyl)amino]-acetamide], the IC50 was 0.25 to 2.5 µM in assay [1], over 2.5 µM in assay [2], 0.25 to 2.5 µM in assay [3] and 0.25 to 2.5 µM in assay [4].
For the molecule `CN(C)C(=O)CNCc1cc(/C=N/CCC2CCCCC2)ccn1` [Compound 36, 2-[({4-[[(2-cyclohexylethyl)imino]-methyl]pyridin-2-yl}methyl)amino]-N,N-dimethylacetamide], the IC50 in assay [1] is over 2.5 µM; in assay [2], over 2.5 µM; in assay [3], over 2.5 µM; in assay [4] it was 0.25 to 2.5 µM.
As for `CN(C)CCNCc1cc(C=O)ccn1` [Compound 110, 2-({[2-(dimethylamino)-ethyl]amino}methyl)-pyridine-4-carbaldehyde], the IC50 in assay [1] is over 2.5 µM; in assay [2] it was over 2.5 µM; in assay [3] it was over 2.5 µM; in assay [4] it was 0.25 to 2.5 µM.
